For one test, the target named is T1, Adrenergic β2 (Homo sapiens, UniProt P07550).
T1 construct: Adherent H292 cells are removed from tissue culture flasks by treatment with Accutase™ cell detachment solution; endogenous in cells; host or cells: H292 cells
The experiment in a line: Adrenergic β2 mediated cAMP production in H292 cells, single concentration 1 μM. Format: cell-based. The conditions noted are these: NCI-H292, 1 μM compound, cAMP as percentage of the maximum response generated by 1E-07M formoterol, read-out: β2 % effect @1 uM. The procedure: The following experimental procedure was used to measure the beta-2% effect at 1 μM for the compounds of Examples 99-175. Adrenergic p2 Mediated cAMP Production Cell Preparation
H292 cells are grown in 225 cm2 flasks incubator at 37° C., 5% CO2 in RPMI medium containing 10% (v/v) FBS (foetal bovine serum) and 2 mM L-glutamine.
Compounds are prepared by an initial first dilution into DMSO to give 1 mM stock concentration. This is followed by a 1 in 10 dilution of the stock concentration (10 μl stock compound +90 μl DMSO) to give 0.1 mM compound. A compound addition plate is prepared by making a further 1 in 25 dilution in assay buffer (HBSS solution containing 10 mM HEPES pH7.4 and 5 mM glucose) containing 4% dimethylsulfoxide. The final compound concentration in assay is 1 μM.
Adherent H292 cells are removed from tissue culture flasks by treatment with Accutase™ cell detachment solution for 15 minutes. Flasks are incubated for 15 minutes in a humidified incubator at 37° C., 5% CO2. Detached cells are re-suspended in RPMI media (containing 10% (v/v) FBS and 2 mM L-glutamine) at 0.1×10^6 cells per mL. 10000 cells in 100 μL are added to each well of a tissue-culture-treated 96-well plate and the cells incubated overnight in a humidified incubator at 37° C., 5% CO2. The culture media is removed and cells are washed twice with 100 μL assay buffer and replaced with 50 μL assay buffer (HBSS solution containing 10 mM HEPES pH7.4 and 5 mM glucose). Cells are rested at room temperature for 20 minutes after which time 25 μL of rolipram (1.2 mM made up in assay buffer) is added. Cells are incubated with rolipram for 10 minutes after which time 25 μl test compounds are added and the cells are incubated for 60 minutes at room temperature. The final rolipram concentration in the assay is 300 μM and final vehicle concentration is 1% (v/v) dimethylsulphoxide. The reaction is stopped by removing supernatants, washing once with 100 μL assay buffer and replacing with 50 μL lysis buffer. The cell monolayer is frozen at −80° C. for 30 minutes (or overnight).
AlphaScreen™ cAMP Detection
The concentration of cAMP (cyclic adenosine monophosphate) in the cell lysate is determined using AlphaScreen™ methodology. The frozen cell plate is thawed for 20 minutes on a plate shaker then 10 μL of the cell lysate is transferred to a 96-well white plate. 40 μl of mixed AlphaScreen™ detection beads (containing equal volumes of donor beads (pre-incubated with biotinylated cAMP in the dark for 30 minutes) and acceptor beads is added to each well and the plate incubated at room temperature for 3 hours in the dark. The AlphaScreen™ signal is measured using an EnVision spectrophotometer (Perkin-Elmer Inc.) with the recommended manufacturer's settings. Concentration of cAMP produced per well were calculated with reference to the cAMP standard curve determined in the same experiment and expressed as a percentage of the maximum response generated by 1E-07M formoterol.
For orientation: Changes in cAMP serve as a functional read-out for many G protein-coupled receptors.

The target of test [1] is T2, human muscarinic acetylcholine M3 receptor (Homo sapiens, UniProt P20309).
T2 construct: expressed in transfected cells; host or cells: CHO-K1 (Chinese Hamster Ovary) cell membranes
The experiment in a line: Muscarinic 3 receptor binding assay ([3H]NMS competition, SPA), single concentration 1 μM. The conditions noted are these: 1 μM compound; % inhibition specific [3H]-NMS binding. On the procedure: The following experimental procedure was used to determine the M3% inhibition at 1 μM of the compounds of Examples 99-175
Muscarinic 3 Receptor Binding Assay
The activity (% inhibition specific binding) of compounds on the M3 receptor is determined by competition binding of [^3H]N-methyl scopolamine (NMS) to CHO-K1 (Chinese Hamster Ovary) cell membranes expressing the human muscarinic acetylcholine M3 receptor (M3-ACh) in a scintillation proximity assay (SPA) format. SPA beads are precoated with membranes and then incubated at 2 mg of beads per well with 1 μM compound of the invention, [^3H]NMS at 0.1 nM, quarter Kd (experimentally determined dissociation constant) and assay buffer (20 mM HEPES pH 7.4 containing 5 mM MgCl2 and 0.1% (w/v) bovine serum albumin). The assay is conducted in a final volume of 200 μL, in the presence of 1% (v/v) dimethyl sulphoxide (DMSO). Total binding of [^3H]NMS is determined in the absence of competing compound and non-specific binding of [^3H]NMS is determined in the presence of 1 μM atropine. The plates are incubated for 16 hours at room temperature and then read on Wallac Microbeta™ using a normalised ^3H protocol. The compound activity at 1 μM, defined as % inhibition specific [^3H]-NMS binding, is determined.

From US8476265B2, “Compounds-801” (AstraZeneca AB, priority 2010, dated 2013) come the findings set out here.

Each structure is given as a SMILES string.

T1 sequence (P07550 whole entry): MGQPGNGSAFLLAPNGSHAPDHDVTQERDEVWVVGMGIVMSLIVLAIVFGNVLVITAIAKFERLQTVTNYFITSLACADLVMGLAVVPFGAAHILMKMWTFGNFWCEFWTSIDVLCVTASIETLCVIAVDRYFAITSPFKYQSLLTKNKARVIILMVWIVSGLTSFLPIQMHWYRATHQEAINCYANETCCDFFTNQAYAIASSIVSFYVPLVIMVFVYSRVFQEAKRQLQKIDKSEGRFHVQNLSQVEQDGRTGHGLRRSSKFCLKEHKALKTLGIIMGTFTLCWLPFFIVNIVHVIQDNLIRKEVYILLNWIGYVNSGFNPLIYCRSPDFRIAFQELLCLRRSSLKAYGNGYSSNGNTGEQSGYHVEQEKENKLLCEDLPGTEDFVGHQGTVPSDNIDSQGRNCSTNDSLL
T2 sequence (P20309 whole entry): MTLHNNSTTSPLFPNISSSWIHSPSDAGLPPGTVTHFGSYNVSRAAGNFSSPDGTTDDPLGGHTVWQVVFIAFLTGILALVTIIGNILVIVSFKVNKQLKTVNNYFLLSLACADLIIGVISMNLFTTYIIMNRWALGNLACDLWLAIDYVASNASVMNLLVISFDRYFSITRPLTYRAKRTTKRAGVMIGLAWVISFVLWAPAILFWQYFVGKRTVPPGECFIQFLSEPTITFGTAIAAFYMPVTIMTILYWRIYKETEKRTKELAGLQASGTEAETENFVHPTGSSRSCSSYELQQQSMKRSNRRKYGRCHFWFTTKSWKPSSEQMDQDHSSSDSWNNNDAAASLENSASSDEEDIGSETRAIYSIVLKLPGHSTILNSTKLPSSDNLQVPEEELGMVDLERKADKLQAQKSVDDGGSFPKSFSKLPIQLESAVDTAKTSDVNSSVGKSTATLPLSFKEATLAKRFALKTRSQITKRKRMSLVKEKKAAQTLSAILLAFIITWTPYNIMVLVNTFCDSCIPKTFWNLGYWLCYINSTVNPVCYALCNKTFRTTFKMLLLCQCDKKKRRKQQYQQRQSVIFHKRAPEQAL

`O=C1COc2c(CCNCCN(C(=O)CCOCCc3cccc(CN4CCC5(CC4)CN(C(=O)c4cnc6ccccc6c4)CCO5)c3)C3CCCCC3)ccc(O)c2N1` [Example 99, N-Cyclohexyl-N-(2-(2-(5-hydroxy-3-oxo-3,4-dihydro-2H-benzo[b][1,4]oxazin-8-yl)ethylamino)ethyl)-3-(3-((4-(quinoline-3-carbonyl)-1-oxa-4,9-diazaspiro[5.5]undecan-9-yl)methyl)phenethoxy)propanamide]: on Adrenergic β2, the percent of formoterol maximum response at 1 µM was determined as 112%. Moreover, in test [1], the inhibition – broadly, the change of the read-out against control, counted positive when it falls – at 1 µM was 99%.
Turning to `O=C1COc2c(CCNCCN(C(=O)CCOCCc3cccc(CN4CCC5(CC4)CN(C(=O)c4cccc6cccnc46)CCO5)c3)C3CCCCC3)ccc(O)c2N1` [Example 100, N-Cyclohexyl-N-(2-(2-(5-hydroxy-3-oxo-3,4-dihydro-2H-benzo[b][1,4]oxazin-8-yl)ethylamino)ethyl)-3-(3-((4-(quinoline-8-carbonyl)-1-oxa-4,9-diazaspiro[5.5]undecan-9-yl)methyl)phenethoxy)propanamide], on Adrenergic β2, the percent of formoterol maximum response at 1 µM was found to be 95%. In addition, the inhibition at 1 µM in test [1] is 96%.
Regarding `CCOc1ncccc1C(=O)N1CCOC2(CCN(Cc3cccc(CCOCCC(=O)N(CCNCCc4ccc(O)c5c4OCC(=O)N5)C4CCCCC4)c3)CC2)C1` [Example 101, N-Cyclohexyl-3-(3-((4-(2-ethoxynicotinoyl)-1-oxa-4,9-diazaspiro[5.5]undecan-9-yl)methyl)phenethoxy)-N-(2-(2-(5-hydroxy-3-oxo-3,4-dihydro-2H-benzo[b][1,4]oxazin-8-yl)ethylamino)ethyl)propanamide], the percent of formoterol maximum response at 1 µM on Adrenergic β2 came out at 105%. The inhibition at 1 µM in test [1] came to 95%.
For the compound `O=C1COc2c(CCNCCN(C(=O)CCOCCc3cccc(CN4CCC5(CC4)CN(C(=O)c4cncc(Br)c4)CCO5)c3)C3CCCCC3)ccc(O)c2N1` [Example 102, 3-(3-((4-(5-Bromonicotinoyl)-1-oxa-4,9-diazaspiro[5.5]undecan-9-yl)methyl)phenethoxy)-N-cyclohexyl-N-(2-(2-(5-hydroxy-3-oxo-3,4-dihydro-2H-benzo[b][1,4]oxazin-8-yl)ethylamino)ethyl)propanamide], at Adrenergic β2, the percent of formoterol maximum response at 1 µM is 108%. For the same compound, the inhibition at 1 µM in test [1] was found to be 99%.
As to `O=C1COc2c(CCNCCN(C(=O)CCOCCc3cccc(CN4CCC5(CC4)CN(C(=O)CCc4nc6ccccc6[nH]4)CCO5)c3)C3CCCCC3)ccc(O)c2N1` [Example 103, 3-(3-((4-(3-(1H-Benzo[d]imidazol-2-yl)propanoyl)-1-oxa-4,9-diazaspiro[5.5]undecan-9-yl)methyl)phenethoxy)-N-cyclohexyl-N-(2-(2-(5-hydroxy-3-oxo-3,4-dihydro-2H-benzo[b][1,4]oxazin-8-yl)ethylamino)ethyl)propanamide], on Adrenergic β2, the percent of formoterol maximum response at 1 µM was found to be 109%. Also, the inhibition at 1 µM in test [1] was determined as 90%.
Take `O=C1COc2c(CCNCCN(C(=O)CCOCCc3cccc(CN4CCC5(CC4)CN(C(=O)C(CO)c4ccccc4)CCO5)c3)C3CCCCC3)ccc(O)c2N1` (stereo not drawn) [Example 104, N-Cyclohexyl-3-(3-((4-(3-hydroxy-2-phenylpropanoyl)-1-oxa-4,9-diazaspiro[5.5]undecan-9-yl)methyl)phenethoxy)-N-(2-(2-(5-hydroxy-3-oxo-3,4-dihydro-2H-benzo[b][1,4]oxazin-8-yl)ethylamino)ethyl)propanamide]: the percent of formoterol maximum response at 1 µM on Adrenergic β2 came out at 100%. Further, the inhibition at 1 µM in test [1] is 101%.
With `O=C1COc2c(CCNCCN(C(=O)CCOCCc3cccc(CN4CCC5(CC4)CN(C(=O)C4CC=CCC4)CCO5)c3)C3CCCCC3)ccc(O)c2N1` (stereo not drawn) [Example 105, 3-(3-((4-(Cyclohex-3-enecarbonyl)-1-oxa-4,9-diazaspiro[5.5]undecan-9-yl)methyl)phenethoxy)-N-cyclohexyl-N-(2-(2-(5-hydroxy-3-oxo-3,4-dihydro-2H-benzo[b][1,4]oxazin-8-yl)ethylamino)ethyl)propanamide], the percent of formoterol maximum response at 1 µM on Adrenergic β2 came to 109%. For the same compound, the inhibition at 1 µM in test [1] was 99%.
`O=C1COc2c(CCNCCN(C(=O)CCOCCc3cccc(CN4CCC5(CC4)CN(C(=O)c4cc6cc(F)ccc6[nH]4)CCO5)c3)C3CCCCC3)ccc(O)c2N1` [Example 107, N-Cyclohexyl-3-(3-((4-(5-fluoro-1H-indole-2-carbonyl)-1-oxa-4,9-diazaspiro[5.5]undecan-9-yl)methyl)phenethoxy)-N-(2-(2-(5-hydroxy-3-oxo-3,4-dihydro-2H-benzo[b][1,4]oxazin-8-yl)ethylamino)ethyl)propanamide]: the percent of formoterol maximum response at 1 µM on Adrenergic β2 was found to be 101%. Besides, the inhibition at 1 µM in test [1] is 100%.
In the same order, the values of `Cc1cc2ncc(C(=O)N3CCOC4(CCN(Cc5cccc(CCOCCC(=O)N(CCNCCc6ccc(O)c7c6OCC(=O)N7)C6CCCCC6)c5)CC4)C3)c(C)n2n1` [Example 108, N-Cyclohexyl-3-(3-((4-(2,7-dimethylpyrazolo[1,5-a]pyrimidine-6-carbonyl)-1-oxa-4,9-diazaspiro[5.5]undecan-9-yl)methyl)phenethoxy)-N-(2-(2-(5-hydroxy-3-oxo-3,4-dihydro-2H-benzo[b][1,4]oxazin-8-yl)ethylamino)ethyl)propanamide] are 98% and 80%.
As for `O=C1COc2c(CCNCCN(C(=O)CCOCCc3cccc(CN4CCC5(CC4)CN(C(=O)Cc4ccsc4)CCO5)c3)C3CCCCC3)ccc(O)c2N1` [Example 109, N-Cyclohexyl-N-(2-(2-(5-hydroxy-3-oxo-3,4-dihydro-2H-benzo[b][1,4]oxazin-8-yl)ethylamino)ethyl)-3-(3-((4-(2-(thiophen-3-yl)acetyl)-1-oxa-4,9-diazaspiro[5.5]undecan-9-yl)methyl)phenethoxy)propanamide], at Adrenergic β2, the percent of formoterol maximum response at 1 µM is 98%. The inhibition at 1 µM in test [1] is 99%.
Regarding `O=C1COc2c(CCNCCN(C(=O)CCOCCc3cccc(CN4CCC5(CC4)CN(C(=O)c4cccc(F)c4F)CCO5)c3)C3CCCCC3)ccc(O)c2N1` [Example 110, N-Cyclohexyl-3-(3-((4-(2,3-difluorobenzoyl)-1-oxa-4,9-diazaspiro[5.5]undecan-9-yl)methyl)phenethoxy)-N-(2-(2-(5-hydroxy-3-oxo-3,4-dihydro-2H-benzo[b][1,4]oxazin-8-yl)ethylamino)ethyl)propanamide], the percent of formoterol maximum response at 1 µM at Adrenergic β2 was 99%. Further, the inhibition at 1 µM in test [1] was determined as 100%.
The corresponding values for `CCOc1ccccc1C(=O)N1CCOC2(CCN(Cc3cccc(CCOCCC(=O)N(CCNCCc4ccc(O)c5c4OCC(=O)N5)C4CCCCC4)c3)CC2)C1` [Example 111, N-Cyclohexyl-3-(3-((4-(2-ethoxybenzoyl)-1-oxa-4,9-diazaspiro[5.5]undecan-9-yl)methyl)phenethoxy)-N-(2-(2-(5-hydroxy-3-oxo-3,4-dihydro-2H-benzo[b][1,4]oxazin-8-yl)ethylamino)ethyl)propanamide] are 107% and 96%.
